T1: Beta-glucosidase (Prunus avium) (UniProt Q43014)
T1 sequence (whole entry): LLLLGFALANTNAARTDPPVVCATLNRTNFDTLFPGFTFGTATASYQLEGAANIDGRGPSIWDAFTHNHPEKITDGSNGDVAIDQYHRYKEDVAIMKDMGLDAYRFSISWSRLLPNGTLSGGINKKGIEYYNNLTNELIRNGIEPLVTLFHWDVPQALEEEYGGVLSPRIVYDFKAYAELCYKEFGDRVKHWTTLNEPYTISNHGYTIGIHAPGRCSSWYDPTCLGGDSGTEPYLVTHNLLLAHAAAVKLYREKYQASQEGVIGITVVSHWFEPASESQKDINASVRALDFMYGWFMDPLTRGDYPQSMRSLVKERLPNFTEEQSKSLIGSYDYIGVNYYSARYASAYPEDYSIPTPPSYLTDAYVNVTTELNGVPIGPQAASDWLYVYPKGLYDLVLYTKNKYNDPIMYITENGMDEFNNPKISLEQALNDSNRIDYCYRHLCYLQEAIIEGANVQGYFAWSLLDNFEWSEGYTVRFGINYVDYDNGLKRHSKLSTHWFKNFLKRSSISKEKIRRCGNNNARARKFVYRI

B1: Beta-glucosidase (Prunus avium), Q43014 (protein)
chain: T1 sequence (whole entry)

Tests used:
Beta-galactosidase [1] = target: T2, Beta-galactosidase (Escherichia coli, UniProt Q8VNN2); assay: Compound was evaluated for its binding affinity towards E-coli Beta-galactosidase
T2 sequence (Q8VNN2 whole entry): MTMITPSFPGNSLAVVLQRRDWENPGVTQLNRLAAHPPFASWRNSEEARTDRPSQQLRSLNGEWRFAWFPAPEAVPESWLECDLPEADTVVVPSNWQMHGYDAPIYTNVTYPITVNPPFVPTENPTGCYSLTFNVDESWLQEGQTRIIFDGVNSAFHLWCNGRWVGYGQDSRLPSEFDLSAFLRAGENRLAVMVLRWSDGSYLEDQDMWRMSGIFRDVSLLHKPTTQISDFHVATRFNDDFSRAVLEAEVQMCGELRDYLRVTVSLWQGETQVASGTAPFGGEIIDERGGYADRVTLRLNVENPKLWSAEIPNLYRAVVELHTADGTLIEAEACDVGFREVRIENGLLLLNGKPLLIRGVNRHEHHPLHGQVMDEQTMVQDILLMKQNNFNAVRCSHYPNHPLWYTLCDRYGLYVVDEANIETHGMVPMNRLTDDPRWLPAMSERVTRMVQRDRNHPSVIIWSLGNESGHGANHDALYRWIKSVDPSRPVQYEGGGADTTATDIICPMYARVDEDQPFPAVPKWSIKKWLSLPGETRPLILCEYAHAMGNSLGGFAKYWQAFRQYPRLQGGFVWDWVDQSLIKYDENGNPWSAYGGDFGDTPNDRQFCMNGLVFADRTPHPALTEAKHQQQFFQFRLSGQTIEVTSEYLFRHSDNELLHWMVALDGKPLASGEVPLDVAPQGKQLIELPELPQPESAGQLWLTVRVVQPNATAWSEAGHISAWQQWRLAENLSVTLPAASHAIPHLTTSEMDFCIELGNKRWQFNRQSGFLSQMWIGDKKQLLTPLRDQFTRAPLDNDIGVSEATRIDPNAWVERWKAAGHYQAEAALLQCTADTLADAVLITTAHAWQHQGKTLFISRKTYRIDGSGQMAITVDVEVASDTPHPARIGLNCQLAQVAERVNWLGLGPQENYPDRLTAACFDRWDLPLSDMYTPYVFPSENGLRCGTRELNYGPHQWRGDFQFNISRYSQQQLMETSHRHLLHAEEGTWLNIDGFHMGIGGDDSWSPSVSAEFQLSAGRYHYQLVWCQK

[2] = Ratio of binding affinity towards E-coli beta - galactosidase to that of km/kcat was determined
[3] = target: T1, Beta-glucosidase (Prunus avium); assay: (§1) Kinetic parameter Km/Kcat against Beta-glucosidase; settings: Prunus dulcis
[4] = Ratio of binding affinity towards E-coli beta - galactosidase to that of Michaelis-Menten constant against E-coli beta-galactosidase
[5] = target: T1, Beta-glucosidase (Prunus avium); assay: as §1; parameters: unit not given here; settings: Prunus dulcis
Beta-galactosidase [6] = target: T2, Beta-galactosidase; assay: Compound was evaluated for its binding affinity towards Beta-galactosidase
[7] = substrate: OC[C@H]1OC[C@@H](O)[C@H]1O; assay: (§2) Michaelis-Menten constant against sweet almond Beta-glucosidase
[8] = substrate: OC[C@H]1OC[C@@H](O)[C@@H]1O; assay: as §2
[9] = substrate: O[C@@H]1COC[C@H]1O; assay: as §2
[10] = substrate: OC[C@H]1OC[C@H](O)[C@@H](O)[C@H]1O; assay: as §2
[11] = substrate: OC[C@H]1OC[C@H](O)[C@@H](O)[C@@H]1O; assay: as §2
[12] = substrate: O[C@H]1[C@H](O)COC[C@@H]1O; assay: as §2

Row | Molecule | Ki (Beta-galactosidase [1]) | Ki/(Km/Kcat) [2] | Ki/Km [4] | Km/Kcat [5] | also measured
1 | OC[C@H]1OC[C@H](O)[C@@H](O)[C@@H]1O [1,5-Anhydrosorbitol] | 71 mM | 330 | 2.2 | 0.21 | Km/Kcat [3]: 0.019
2 | O[C@@H]1COC[C@H]1O | 77 mM | 77 | 5.1 | 1 | 
3 | C[C@H]1OC[C@H](O)[C@@H](O)[C@H]1O |  | 630000 | 1.2 | 6.7e-05 | 
4 | OC[C@H]1OC[C@@H](O)[C@@H]1O |  | 240 | 1.6 |  | Ki (Beta-galactosidase [6]): 51 mM
5 | O[C@H]1[C@H](O)COC[C@@H]1O | 85 mM | 85 | 15.6 | 1 | 
6 | OC[C@H]1OC[C@@H](O)[C@H]1O | 1.9 mM | 1e+08 | 39.6 |  | 
7 | OC[C@H]1OC[C@H](O)[C@@H](O)[C@H]1O | 7.4 mM | 3.9e+08 | 154 |  | 
8 | B1 |  |  |  |  | Km [7]: 15.7 mM; Km [8]: 2.5 mM; Km [9]: 3.1 mM; Km [10]: 15.7 mM; Km [11]: 2.5 mM; Km [12]: 3.1 mM

— ChEMBL document CHEMBL1125856, “The Interaction of Anhydroalditols with Sweet-Almond -glucosidase and Escherichia coli -galactosidase: implications for the design of potent glycosidase inhibitors” (Bioorg Med Chem Lett, 1991)
